Results taken from ChEMBL document CHEMBL5303762, “Data for DCP probe BI-8668” (2023).

Legend:
Details in all cases: Compound concentration 10.0 uM
[1] = molecular target: T1, 5-hydroxytryptamine receptor 1A (Homo sapiens) (UniProt P08908)
T1 sequence (whole entry): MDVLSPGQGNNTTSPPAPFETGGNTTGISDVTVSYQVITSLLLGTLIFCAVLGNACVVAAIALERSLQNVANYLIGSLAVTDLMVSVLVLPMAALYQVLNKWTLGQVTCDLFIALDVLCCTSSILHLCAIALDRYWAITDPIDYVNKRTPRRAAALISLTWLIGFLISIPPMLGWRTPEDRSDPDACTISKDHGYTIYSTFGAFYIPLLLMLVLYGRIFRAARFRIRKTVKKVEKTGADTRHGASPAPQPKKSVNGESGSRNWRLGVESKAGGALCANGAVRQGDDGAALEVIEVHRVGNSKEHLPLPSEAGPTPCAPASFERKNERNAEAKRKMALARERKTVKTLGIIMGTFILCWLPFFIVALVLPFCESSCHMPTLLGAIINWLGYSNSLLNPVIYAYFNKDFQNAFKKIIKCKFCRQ

[2] = molecular target: 5-hydroxytryptamine receptor 2A (Homo sapiens) (UniProt P28223)
Histamine H3 receptor = Histamine H3 receptor (Homo sapiens, UniProt Q9Y5N1)
[3] = molecular target: Muscarinic acetylcholine receptor M5 (Homo sapiens) (UniProt P08912)
Chain of Muscarinic acetylcholine receptor M5 (Homo sapiens) (P08912 whole entry): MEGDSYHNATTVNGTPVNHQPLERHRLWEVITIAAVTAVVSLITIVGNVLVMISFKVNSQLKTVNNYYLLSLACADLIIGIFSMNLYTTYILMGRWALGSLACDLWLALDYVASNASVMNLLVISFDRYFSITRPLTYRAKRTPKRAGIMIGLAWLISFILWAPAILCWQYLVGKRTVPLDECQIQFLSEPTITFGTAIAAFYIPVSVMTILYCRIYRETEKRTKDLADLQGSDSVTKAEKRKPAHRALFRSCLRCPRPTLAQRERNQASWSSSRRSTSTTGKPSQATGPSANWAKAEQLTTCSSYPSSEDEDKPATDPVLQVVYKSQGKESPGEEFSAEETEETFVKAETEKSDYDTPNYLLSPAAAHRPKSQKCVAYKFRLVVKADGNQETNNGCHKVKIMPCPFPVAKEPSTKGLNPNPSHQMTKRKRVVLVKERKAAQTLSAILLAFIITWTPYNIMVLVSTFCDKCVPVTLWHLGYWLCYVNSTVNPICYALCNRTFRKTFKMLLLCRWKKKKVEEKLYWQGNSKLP

Chain of Histamine H3 receptor (Q9Y5N1 whole entry): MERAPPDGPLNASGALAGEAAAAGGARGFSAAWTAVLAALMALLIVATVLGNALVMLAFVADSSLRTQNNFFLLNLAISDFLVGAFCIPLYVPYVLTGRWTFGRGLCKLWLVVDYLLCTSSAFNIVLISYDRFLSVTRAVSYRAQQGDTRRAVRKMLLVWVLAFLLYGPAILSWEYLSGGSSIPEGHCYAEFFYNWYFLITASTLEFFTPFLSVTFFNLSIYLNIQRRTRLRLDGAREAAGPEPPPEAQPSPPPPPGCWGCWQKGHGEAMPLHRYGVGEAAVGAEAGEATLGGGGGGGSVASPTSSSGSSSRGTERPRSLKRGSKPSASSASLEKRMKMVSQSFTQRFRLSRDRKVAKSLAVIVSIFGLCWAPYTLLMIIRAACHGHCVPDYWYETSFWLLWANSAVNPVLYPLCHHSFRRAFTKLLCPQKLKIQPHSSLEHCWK
Chain of 5-hydroxytryptamine receptor 2A (Homo sapiens) (P28223 whole entry): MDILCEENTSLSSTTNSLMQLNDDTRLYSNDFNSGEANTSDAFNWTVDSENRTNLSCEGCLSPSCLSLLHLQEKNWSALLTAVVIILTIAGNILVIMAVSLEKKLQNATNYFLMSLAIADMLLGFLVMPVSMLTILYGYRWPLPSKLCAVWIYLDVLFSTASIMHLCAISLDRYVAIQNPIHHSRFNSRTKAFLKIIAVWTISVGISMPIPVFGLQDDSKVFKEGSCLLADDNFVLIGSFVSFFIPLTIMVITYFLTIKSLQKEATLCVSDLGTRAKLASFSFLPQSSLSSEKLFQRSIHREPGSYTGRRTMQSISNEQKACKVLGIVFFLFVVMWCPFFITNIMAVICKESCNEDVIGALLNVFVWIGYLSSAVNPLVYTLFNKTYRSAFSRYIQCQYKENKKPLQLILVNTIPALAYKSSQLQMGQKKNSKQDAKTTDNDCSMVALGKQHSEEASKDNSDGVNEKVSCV

inhibition [1]: -4.21%
inhibition [2]: -1.15%
inhibition (Histamine H3 receptor): 85.4%
inhibition [3]: 18.7%
SMILES: CCn1c(CNC(=O)c2nc(Cl)cnc2N)[n+](CC)c2ccc(C(=O)N(C)CCN(C)C)cc21
